Data taken from PMC10624687 (Nature Communications, 2023).

Columns and labels:
[1] = target: T1, HsClpP (mitochondrial caseinolytic protease P) (Homo sapiens, UniProt Q16740); test: X-ray crystal structure at […] Å; DSF (ΔTm […] °C); EC50 from FITC-casein FI protease assay; CETSA; type: biochemical; set-up: gene CLPP; HsClpPΔ56 (N-terminus 56 amino acids truncated)
[2] = target: SaClpP (Staphylococcus aureus ClpP) (Staphylococcus aureus, UniProt Q2G036, I91W); test: PAGE-based α-casein hydrolysis activation assay; DSF; type: biochemical
[3] = target: T2, HsClpP (mitochondrial caseinolytic protease P) (Homo sapiens, UniProt Q16740, W146I); test: biochemical
T2 construct: gene CLPP

[4] = target: T3, HsClpP (mitochondrial caseinolytic protease P) (Homo sapiens, UniProt Q16740, Y118A); test: PAGE-based α-casein degradation assay; NanoDSF; type: biochemical
T3 construct: gene CLPP

[5] = target: T1, HsClpP (mitochondrial caseinolytic protease P); test: biochemical; set-up: gene CLPP

T1 sequence (Q16740 57-277): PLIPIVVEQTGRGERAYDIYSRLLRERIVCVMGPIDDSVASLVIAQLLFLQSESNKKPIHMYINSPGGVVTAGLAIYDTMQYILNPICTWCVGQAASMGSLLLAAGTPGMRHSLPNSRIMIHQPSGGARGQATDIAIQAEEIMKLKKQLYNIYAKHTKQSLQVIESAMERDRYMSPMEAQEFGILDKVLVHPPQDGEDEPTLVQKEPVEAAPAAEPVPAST
T2 sequence (Q16740 57-277 W146I): as the sequence (Q16740 57-277) above, with W90I counted along it
T3 sequence (Q16740 57-277 Y118A): as the sequence (Q16740 57-277) above, with Y62A counted along it

Compound	EC50 [1] [µM]	EC50 [2] [µM]	EC50 [3] [µM]	PAGE-based α-casein degradation assay; NanoDSF [4]	EC50 [5] [µM]
O=C(NCc1ccc(Br)cc1)N1CCN(Cc2cc(F)cc(F)c2)CC1 [ZK53]	0.22	5.4	11.8	ZK53 is still effective to promote Y118A ClpP for α-casein degradation in PAGE assay	–
O=C(COc1ccc(Cl)cc1)N1CCN(Cc2cc(F)cc(F)c2)CC1 [ZK11]	–	8.4	42.4	–	0.45
